From ChEMBL document CHEMBL5291721, “A preclinical secondary pharmacology resource illuminates target-adverse drug reaction associations of marketed drugs” (Nat Commun, 2023)

Legend:
[1] = biological target: T1, 5-hydroxytryptamine receptor 2C (Homo sapiens, UniProt P28335)
T1 sequence (P28335 whole entry): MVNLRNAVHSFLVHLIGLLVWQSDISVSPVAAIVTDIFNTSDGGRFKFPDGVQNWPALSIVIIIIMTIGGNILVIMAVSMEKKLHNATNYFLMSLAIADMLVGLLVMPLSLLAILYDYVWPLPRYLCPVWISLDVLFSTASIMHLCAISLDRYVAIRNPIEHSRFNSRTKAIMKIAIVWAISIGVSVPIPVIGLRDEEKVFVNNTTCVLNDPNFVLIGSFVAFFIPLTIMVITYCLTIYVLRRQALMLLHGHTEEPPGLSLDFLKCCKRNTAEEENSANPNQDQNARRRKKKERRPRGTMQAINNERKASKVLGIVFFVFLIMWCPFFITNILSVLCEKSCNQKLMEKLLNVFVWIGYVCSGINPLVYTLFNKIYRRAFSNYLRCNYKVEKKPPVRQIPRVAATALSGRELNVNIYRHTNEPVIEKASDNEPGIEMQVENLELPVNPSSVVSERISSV

[2] = biological target: T2, 5-hydroxytryptamine receptor 1A (Homo sapiens, UniProt P08908); assay type: functional, cell-based
T2 sequence (P08908 whole entry): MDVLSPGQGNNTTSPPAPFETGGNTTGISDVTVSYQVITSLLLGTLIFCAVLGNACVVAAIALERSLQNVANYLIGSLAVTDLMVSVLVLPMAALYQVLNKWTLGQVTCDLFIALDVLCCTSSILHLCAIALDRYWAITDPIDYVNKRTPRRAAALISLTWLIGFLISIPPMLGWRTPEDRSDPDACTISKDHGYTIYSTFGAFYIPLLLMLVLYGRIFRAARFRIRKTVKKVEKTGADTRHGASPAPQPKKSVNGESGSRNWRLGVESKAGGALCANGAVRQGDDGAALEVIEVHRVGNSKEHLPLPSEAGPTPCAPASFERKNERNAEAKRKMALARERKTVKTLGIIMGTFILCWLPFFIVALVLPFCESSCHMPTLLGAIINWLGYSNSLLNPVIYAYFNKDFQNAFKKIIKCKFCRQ

[3] = biological target: T3, Alpha-2A adrenergic receptor (Homo sapiens, UniProt P08913); assay type: functional, cell-based
T3 sequence (P08913 whole entry): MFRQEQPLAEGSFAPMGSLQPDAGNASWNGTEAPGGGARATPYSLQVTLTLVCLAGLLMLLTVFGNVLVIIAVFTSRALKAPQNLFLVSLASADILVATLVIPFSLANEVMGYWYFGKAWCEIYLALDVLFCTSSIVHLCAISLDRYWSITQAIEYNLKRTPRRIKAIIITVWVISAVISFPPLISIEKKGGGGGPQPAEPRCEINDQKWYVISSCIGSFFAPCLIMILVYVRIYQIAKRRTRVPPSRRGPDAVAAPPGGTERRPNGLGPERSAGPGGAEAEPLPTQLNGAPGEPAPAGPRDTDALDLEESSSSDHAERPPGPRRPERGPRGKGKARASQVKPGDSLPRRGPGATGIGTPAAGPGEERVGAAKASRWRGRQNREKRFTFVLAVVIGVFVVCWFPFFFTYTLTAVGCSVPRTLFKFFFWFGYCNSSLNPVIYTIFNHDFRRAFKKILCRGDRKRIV

[4] = biological target: T4, Type-1 angiotensin II receptor (Homo sapiens, UniProt P30556)
T4 sequence (P30556 whole entry): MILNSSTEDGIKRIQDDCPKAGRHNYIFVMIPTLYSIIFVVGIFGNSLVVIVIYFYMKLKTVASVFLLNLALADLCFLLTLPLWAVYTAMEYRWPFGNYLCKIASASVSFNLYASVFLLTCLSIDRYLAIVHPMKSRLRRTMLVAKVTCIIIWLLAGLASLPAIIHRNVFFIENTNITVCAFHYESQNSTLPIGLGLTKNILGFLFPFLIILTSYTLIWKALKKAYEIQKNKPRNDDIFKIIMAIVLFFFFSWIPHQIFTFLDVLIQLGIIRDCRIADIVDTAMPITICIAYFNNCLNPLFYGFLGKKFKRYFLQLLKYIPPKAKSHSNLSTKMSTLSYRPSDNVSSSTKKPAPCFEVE

[5] = biological target: T5, Alpha-1A adrenergic receptor (Homo sapiens, UniProt P35348); assay type: functional, cell-based
T5 sequence (P35348 whole entry): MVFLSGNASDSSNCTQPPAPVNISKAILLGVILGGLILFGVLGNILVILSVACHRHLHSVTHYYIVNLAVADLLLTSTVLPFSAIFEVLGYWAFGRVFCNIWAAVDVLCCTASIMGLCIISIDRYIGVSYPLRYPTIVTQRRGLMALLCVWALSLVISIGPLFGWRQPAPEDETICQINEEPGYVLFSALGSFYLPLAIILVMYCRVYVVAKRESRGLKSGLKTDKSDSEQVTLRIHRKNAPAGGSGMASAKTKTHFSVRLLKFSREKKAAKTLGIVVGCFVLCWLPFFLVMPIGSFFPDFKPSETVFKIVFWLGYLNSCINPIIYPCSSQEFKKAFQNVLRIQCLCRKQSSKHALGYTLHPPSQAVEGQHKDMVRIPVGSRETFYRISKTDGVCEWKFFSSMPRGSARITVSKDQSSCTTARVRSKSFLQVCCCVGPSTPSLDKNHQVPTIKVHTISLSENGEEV

[6] = biological target: 5-hydroxytryptamine receptor 2B (Homo sapiens, UniProt P41595); assay type: functional, cell-based
Sequence of 5-hydroxytryptamine receptor 2B (P41595 whole entry): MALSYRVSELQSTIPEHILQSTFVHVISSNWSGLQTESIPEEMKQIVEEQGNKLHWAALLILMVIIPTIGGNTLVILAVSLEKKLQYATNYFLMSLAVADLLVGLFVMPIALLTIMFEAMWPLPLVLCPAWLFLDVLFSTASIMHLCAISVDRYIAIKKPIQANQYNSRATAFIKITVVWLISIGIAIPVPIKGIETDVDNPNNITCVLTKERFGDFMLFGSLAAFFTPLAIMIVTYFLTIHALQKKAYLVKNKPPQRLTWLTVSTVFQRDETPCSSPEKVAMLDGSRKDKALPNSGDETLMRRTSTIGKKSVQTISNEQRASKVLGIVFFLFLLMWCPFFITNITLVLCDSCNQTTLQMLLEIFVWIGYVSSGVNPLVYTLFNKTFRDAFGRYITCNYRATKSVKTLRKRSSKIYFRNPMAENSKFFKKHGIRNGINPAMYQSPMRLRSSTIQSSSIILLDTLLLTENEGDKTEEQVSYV

[7] = biological target: Delta-type opioid receptor (Homo sapiens, UniProt P41143)
Sequence of Delta-type opioid receptor (P41143 whole entry): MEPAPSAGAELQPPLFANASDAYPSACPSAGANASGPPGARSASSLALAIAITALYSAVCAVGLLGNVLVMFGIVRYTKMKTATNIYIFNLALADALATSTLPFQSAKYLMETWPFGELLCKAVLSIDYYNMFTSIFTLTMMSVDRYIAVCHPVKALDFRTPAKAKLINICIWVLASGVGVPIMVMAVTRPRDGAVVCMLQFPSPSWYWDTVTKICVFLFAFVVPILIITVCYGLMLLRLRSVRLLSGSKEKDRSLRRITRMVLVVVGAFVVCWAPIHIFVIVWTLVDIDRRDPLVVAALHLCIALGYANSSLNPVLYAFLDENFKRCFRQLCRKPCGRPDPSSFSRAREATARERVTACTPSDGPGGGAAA

Histamine H2 receptor = Histamine H2 receptor (Homo sapiens, UniProt P25021); assay type: functional, cell-based
Sequence of Histamine H2 receptor (P25021 whole entry): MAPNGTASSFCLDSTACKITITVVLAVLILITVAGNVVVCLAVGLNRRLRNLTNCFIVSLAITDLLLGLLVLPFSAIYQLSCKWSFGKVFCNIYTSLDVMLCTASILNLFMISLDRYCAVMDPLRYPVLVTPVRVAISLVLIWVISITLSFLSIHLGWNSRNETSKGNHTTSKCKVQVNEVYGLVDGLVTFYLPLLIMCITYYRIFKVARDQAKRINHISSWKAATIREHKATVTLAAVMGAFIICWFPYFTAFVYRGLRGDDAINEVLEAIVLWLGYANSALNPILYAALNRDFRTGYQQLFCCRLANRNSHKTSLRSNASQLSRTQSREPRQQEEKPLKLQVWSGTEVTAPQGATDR

Cannabinoid receptor 1 = Cannabinoid receptor 1 (Homo sapiens, UniProt P21554); assay type: functional, cell-based
Sequence of Cannabinoid receptor 1 (P21554 whole entry): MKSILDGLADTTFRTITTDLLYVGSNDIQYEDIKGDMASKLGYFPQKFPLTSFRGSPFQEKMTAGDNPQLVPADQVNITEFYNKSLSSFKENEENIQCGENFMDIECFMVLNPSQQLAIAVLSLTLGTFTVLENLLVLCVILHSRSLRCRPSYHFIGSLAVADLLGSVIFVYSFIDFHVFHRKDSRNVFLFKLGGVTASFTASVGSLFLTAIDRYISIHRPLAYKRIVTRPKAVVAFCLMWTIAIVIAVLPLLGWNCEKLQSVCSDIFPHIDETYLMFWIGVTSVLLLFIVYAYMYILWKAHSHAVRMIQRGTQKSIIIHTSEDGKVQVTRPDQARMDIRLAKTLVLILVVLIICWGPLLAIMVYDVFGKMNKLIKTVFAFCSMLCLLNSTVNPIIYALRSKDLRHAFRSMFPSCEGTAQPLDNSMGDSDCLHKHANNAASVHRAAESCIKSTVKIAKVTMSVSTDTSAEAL

[8] = biological target: Growth hormone secretagogue receptor type 1 (Homo sapiens, UniProt Q92847)
Sequence of Growth hormone secretagogue receptor type 1 (Q92847 whole entry): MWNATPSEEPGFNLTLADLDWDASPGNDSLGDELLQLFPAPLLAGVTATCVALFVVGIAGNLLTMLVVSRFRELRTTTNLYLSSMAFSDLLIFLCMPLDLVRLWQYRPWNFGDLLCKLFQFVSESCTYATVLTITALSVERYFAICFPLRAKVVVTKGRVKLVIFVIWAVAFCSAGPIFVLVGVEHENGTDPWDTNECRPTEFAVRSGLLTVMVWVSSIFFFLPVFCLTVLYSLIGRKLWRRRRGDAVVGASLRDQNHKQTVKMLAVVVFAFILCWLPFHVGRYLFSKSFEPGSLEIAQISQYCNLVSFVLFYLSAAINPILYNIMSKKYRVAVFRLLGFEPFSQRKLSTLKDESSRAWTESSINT

Adenosine receptor A1 = biological target: T6, Adenosine receptor A1 (Homo sapiens, UniProt P30542)
T6 sequence (P30542 whole entry): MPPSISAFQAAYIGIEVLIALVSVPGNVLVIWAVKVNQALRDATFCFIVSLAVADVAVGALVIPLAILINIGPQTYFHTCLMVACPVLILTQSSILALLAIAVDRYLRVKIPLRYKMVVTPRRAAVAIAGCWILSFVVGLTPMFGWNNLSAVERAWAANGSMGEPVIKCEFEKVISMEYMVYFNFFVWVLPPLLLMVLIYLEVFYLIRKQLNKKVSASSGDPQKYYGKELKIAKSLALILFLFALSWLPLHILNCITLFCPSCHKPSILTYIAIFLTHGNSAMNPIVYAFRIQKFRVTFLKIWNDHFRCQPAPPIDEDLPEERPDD

Mu-type opioid receptor = Mu-type opioid receptor (Homo sapiens, UniProt P35372); experiment: biochemical; assay type: functional
Sequence of Mu-type opioid receptor (P35372 whole entry): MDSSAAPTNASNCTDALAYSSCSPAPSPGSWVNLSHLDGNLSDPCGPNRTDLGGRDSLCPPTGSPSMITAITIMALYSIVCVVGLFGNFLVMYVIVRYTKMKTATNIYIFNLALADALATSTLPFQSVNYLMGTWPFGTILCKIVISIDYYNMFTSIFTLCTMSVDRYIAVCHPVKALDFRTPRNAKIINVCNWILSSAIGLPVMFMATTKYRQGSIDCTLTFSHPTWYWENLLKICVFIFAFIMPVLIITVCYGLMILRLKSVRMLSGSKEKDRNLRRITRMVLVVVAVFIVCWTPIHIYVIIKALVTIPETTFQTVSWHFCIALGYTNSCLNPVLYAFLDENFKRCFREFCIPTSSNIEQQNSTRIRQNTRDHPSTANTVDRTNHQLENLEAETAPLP
Further: assay procedure not described here.

Structure (SMILES) | AC50 [1] | AC50 [2] | AC50 [3] | AC50 [4] | AC50 [5] | AC50 [6] | AC50 [7] | AC50 (Histamine H2 receptor) | AC50 (Cannabinoid receptor 1) | AC50 [8] | AC50 (Adenosine receptor A1) | AC50 (Mu-type opioid receptor)
C[C@]12C=CC(=O)C=C1CC[C@@H]1[C@@H]2[C@@H](O)C[C@@]2(C)[C@H]1CC[C@]2(O)C(=O)CO [PREDNISOLONE] | > 30 µM | > 10 µM | > 10 µM | > 30 µM | > 30 µM | > 10 µM | > 30 µM | > 10 µM | > 30 µM | > 30 µM | > 30 µM | 
CCC(=O)c1ccc2c(c1)N(CC(C)N(C)C)c1ccccc1S2 (stereo not drawn) [PROPIOMAZINE] | 0.18 µM | 2.7 µM | > 10 µM | > 10 µM |  | > 10 µM | > 30 µM | > 10 µM |  | > 10 µM | > 10 µM | 
CC(C)(C)NCC(O)COc1ccccc1C#N (stereo not drawn) [BUNITROLOL] | > 30 µM |  | > 30 µM |  | > 30 µM | > 30 µM | > 30 µM | > 30 µM | > 30 µM |  |  | > 30 µM
COc1cccc2c1C(=O)c1c(O)c3c(c(O)c1C2=O)C[C@@](O)(C(=O)CO)C[C@@H]3O[C@H]1C[C@H](N)[C@H](O)[C@H](C)O1 [DOXORUBICIN] | > 30 µM |  | 12 µM | > 30 µM |  | > 10 µM | > 30 µM | > 10 µM | > 30 µM | > 30 µM | > 30 µM | 
CC1(C)O[C@@H]2C[C@H]3[C@@H]4CCC5=CC(=O)C=C[C@]5(C)[C@@]4(F)[C@@H](O)C[C@]3(C)[C@]2(C(=O)CO)O1 [TRIAMCINOLONE ACETONIDE] | > 30 µM | > 30 µM | > 30 µM | > 30 µM |  | > 30 µM | > 30 µM | > 30 µM | > 30 µM | > 30 µM | > 30 µM | > 30 µM
COc1ccc(C(=O)c2ccccc2)c(O)c1 [OXYBENZONE] | > 30 µM |  | > 30 µM |  | > 30 µM | > 30 µM | > 30 µM | > 30 µM | > 30 µM |  |  | > 30 µM
C[C@]12CCC(=O)C=C1[C@@H]1C[C@@H]1[C@H]1[C@@H]3[C@@H]4C[C@@H]4[C@@]4(CCC(=O)O4)[C@@]3(C)CC[C@@H]12 [DROSPIRENONE] | > 30 µM |  | > 30 µM | > 30 µM | > 30 µM | 26 µM | > 30 µM | > 30 µM |  | > 30 µM | > 30 µM | > 30 µM
CN(C)CCC(O)(c1ccccc1)c1ccccc1Cl (stereo not drawn) [CHLOPHEDIANOL] | 8.3 µM |  | > 10 µM | > 10 µM |  | > 10 µM | > 30 µM | > 10 µM | > 30 µM | > 10 µM | > 10 µM | 
Cc1ccc(O)c([C@H](CCN(C(C)C)C(C)C)c2ccccc2)c1 [TOLTERODINE] | > 30 µM | > 10 µM | > 10 µM |  | > 30 µM | > 10 µM | > 10 µM | > 10 µM | > 30 µM |  |  | 
N=C(N)NC(=O)c1nc(Cl)c(N)nc1N [AMILORIDE] | > 30 µM | 16 µM | > 30 µM | > 30 µM | > 30 µM | > 30 µM | > 30 µM | > 30 µM |  | > 30 µM | > 30 µM | 4 µM
Oc1cc(Cl)ccc1Oc1ccc(Cl)cc1Cl [TRICLOSAN] | > 30 µM |  | > 30 µM | 24 µM | > 30 µM | > 30 µM | > 30 µM | > 30 µM | > 30 µM | > 30 µM | > 30 µM | > 30 µM
C[C@]12C=CC(=O)C=C1C(Cl)=C[C@@H]1[C@@H]2[C@@H](O)C[C@@]2(C)[C@H]1CC[C@]2(O)C(=O)CO [CLOPREDNOL] | 8.7 µM | > 30 µM | > 30 µM | > 30 µM |  | > 30 µM | > 30 µM | > 30 µM | > 30 µM | > 30 µM | > 30 µM | > 30 µM
CN(C)[C@@H]1C(O)=C(C(=O)NCN2CCCC2)C(=O)[C@@]2(O)C(O)=C3C(=O)c4c(O)cccc4[C@@](C)(O)[C@H]3C[C@@H]12 [ROLITETRACYCLINE] | > 30 µM | > 30 µM | > 10 µM | > 10 µM | > 30 µM | > 10 µM | > 30 µM | > 10 µM | > 30 µM | > 10 µM | > 10 µM | 
C[C@]12CCC(=O)C=C1C=C[C@@H]1[C@@H]2CC[C@@]2(C)[C@H]1CC[C@@]21CCC(=O)O1 [CANRENONE] | > 30 µM | > 30 µM | > 30 µM | > 30 µM | > 30 µM | > 30 µM | > 30 µM | > 30 µM | > 30 µM | > 30 µM | > 30 µM | > 30 µM
CCn1c(=O)c2c(nc(/C=C/c3ccc(OC)c(OC)c3)n2C)n(CC)c1=O [ISTRADEFYLLINE] |  |  |  |  | > 30 µM |  |  |  |  |  | 23 µM | 
CC(C)(Oc1ccc(Cl)cc1)C(=O)OCCOC(=O)c1cccnc1 [ETOFIBRATE] | > 30 µM |  | > 30 µM | > 30 µM | > 30 µM | > 30 µM | > 30 µM | > 30 µM | > 30 µM | > 30 µM | > 30 µM | > 30 µM
Cc1cn(-c2cc(NC(=O)c3ccc(C)c(Nc4nccc(-c5cnccn5)n4)c3)cc(C(F)(F)F)c2)cn1 [RADOTINIB] |  |  |  |  | > 30 µM |  |  |  |  |  |  | 
